The source of these data is patent US20250042925A1, “Improved Compositions and Methods for Targeting Mitochondria in Cancer Cells” (The Medical College of Wisconsin, Inc., priority 2021, published 2025).

One data set concerns diabetic patients. The conditions noted are these: cited from earlier work.
In data set [1] the test system is HPNE and HPSC non-transformed cells. Kind of data set: Cell growth (confluence) of normal non-transformed cells. Format: cell-based, human. The protocol: To test the off-target effects of the refined MMe analogs on normal non-transformed cells, the growth of HPNE cells (FIGS. 11A, 11D, and 11G), used as a surrogate for normal pancreatic ductal epithelium, or normal stromal HPSC cells (FIGS. 11B, 11E, and 11H) were measured in increasing concentrations of MMe, pCF3-MMe, or mCF3-MMe and compared to the vehicle control.
(§1) Murine pancreatic cancer cells KPC1242 (David Tuveson, Cold Spring Harbor), human pancreatic cancer cells, Panc-1 (ATCC: CRL-1469), human breast cancer cells MDA-MB-231 (ATCC: CRM-HTB-26), and human pancreatic stellate cells HPSC (Rosa F. Hwang, MD Anderson cancer) were all cultured in DMEM (Gibco ThermoFisher Scientific, Waltham, MA, Cat #11965084) containing 10% v/v fetal bovine serum (Omega Scientific, Inc., Tarzana, CA, Cat #FB-12). Human pancreatic cancer cells AsPC-1 (ATCC: CRL-1682), human ovarian cancer cells OVCAR-8 (NIH: CVCL-1629), and human ovarian cancer cells OVCAR-4 (NIH: CVCL-1627) were all cultured in DMEM (Gibco, Cat #22400089) containing 10% v/v fetal bovine serum (Omega Scientific). Human colon cancer cells HCT-116 (ATCC: CCL-247) were cultured in McCoy's 5A Modified Medium (Gibco, Cat #16600082) containing 10% v/v fetal bovine serum (Omega Scientific). Human pancreatic duct epithelial cells HPNE (ATCC: CRL-4023) were cultured in DMEM and 200 mM L-Glutamine and 7.5% w/v NaCO3 further supplemented with 15% v/v fetal bovine serum, M3-Base A (Incell, San Antonio, TX), 1M D-Glucose (Gibco Cat #J60067.EQE), 100 μg/mL human EGF (Gibco Cat #PHG0313) and 10 mg/mL puromycin (ThermoFisher, Cat #A1113802).

Data set [2] relates to KPC1242, Panc-1, AsPC-1, HCT-116, MDA-MB-231, OVCAR-4, OVCAR-8 cancer cell lines. Kind of data set: Cell growth (IncuCyte confluence) in cancer cell lines. The class given is cell-based, murine, human. The settings on record: increasing concentrations 0.1 μM-10 μM, each of the cancer cells.
Excerpt: as §1

In data set [3] the test system is Panc-1 human pancreatic cancer cells. Kind of data set: Cell growth (IncuCyte confluence) in Panc-1 cells.
Excerpt: Values are mean±SD, n=4, each experiment completed in technical quadruplicate.
To investigate tumor cell selectivity, human pancreatic nestin-expressing cells (HPNE) were used as a surrogate for normal epithelial cells, and human pancreatic stellate cells (HPSC) were studied as a non-transformed stromal cell type. Cells were exposed to escalating concentrations of MMe, pCF3-MMe, mCF3-MMe, and pMeO-MMe (FIGS. 2A-2D) and percent confluency measured as a surrogate for daily proliferation.
Cells were plated to standard 96-well tissue culture plates at 4,000 cells/well. Mitochondria-targeted compounds were diluted in full serum medium and added to wells. Cell confluence was measured using an IncuCyte S3 every 2 hours at 10× magnification. […] Image analyses were conducted using the IncuCyte S3 imaging software system.

Take `CN(C)C(=N)N=C(N)N` [Metformin]: the tolerated daily doses in the data set on diabetic patients is listed as 2-3 grams.

For the compound `N=C(N)NC(=N)NCCCCCCCCCC[P+](c1cccc(C(F)(F)F)c1)(c1cccc(C(F)(F)F)c1)c1cccc(C(F)(F)F)c1.[Br-]` [mCF3-MMe, (10-(3-carbamimidoylguanidino)decyl)tris(3-(trifluoromethyl)phenyl)phosphonium bromide], the “reduction in toxicity to normal cells compared to MMe” value in data set [1] was roughly 10 fold. In data set [1] (HPNE, HPSC versus cancer cells), the “sensitivity of normal non-transformed cells compared to cancer cells” value is listed as “more than a log less sensitive”. The cell confluency entry in data set [2] was “decreased in a concentration-dependent manner”.

Turning to `COc1ccc([P+](CCCCCCCCCCNC(=N)NC(=N)N)(c2ccc(OC)cc2)c2ccc(OC)cc2)cc1` [pMeO-MMe], in data set [3] (human pancreatic cancer cells), the confluence result is “concentration-dependent decrease in confluence”. Also, the “efficacy in pancreas cancer cells” value in data set [3] (in contrast to the fluorinated compound) was “significantly lower efficacy”.
